Results as given in US20260364184A1, “COMPOUND BASED ON OXOISOINDOLINYL-SUBSTITUTED TETRAHYDROPYRIMIDINE-DIONE AND USE THEREOF” (GLUETACS THERAPEUTICS (SHANGHAI) CO., LTD., priority 2023, published 2026).

The compounds below were run against T1, IRAK4 (Homo sapiens, UniProt Q9NWZ3) (assay: Western blot degradation of IRAK4). Conditions: hPBMC Cell; 24 hours.
T1 construct: expression of target proteins in cells; endogenous in cells
T1 sequence (Q9NWZ3 1-460): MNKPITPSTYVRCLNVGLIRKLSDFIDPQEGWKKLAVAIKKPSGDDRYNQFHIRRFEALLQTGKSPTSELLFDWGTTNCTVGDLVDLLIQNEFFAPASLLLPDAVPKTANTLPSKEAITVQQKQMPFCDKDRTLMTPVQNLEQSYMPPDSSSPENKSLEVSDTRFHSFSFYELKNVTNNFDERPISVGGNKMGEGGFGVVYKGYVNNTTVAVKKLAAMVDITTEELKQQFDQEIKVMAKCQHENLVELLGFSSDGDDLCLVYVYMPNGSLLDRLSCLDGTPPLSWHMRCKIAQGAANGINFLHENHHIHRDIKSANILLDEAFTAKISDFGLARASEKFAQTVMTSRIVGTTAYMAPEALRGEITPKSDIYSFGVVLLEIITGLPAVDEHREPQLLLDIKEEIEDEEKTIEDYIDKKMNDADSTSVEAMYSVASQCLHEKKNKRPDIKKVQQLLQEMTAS
Format: cell-based
Procedure: Conventional Western blot assay was performed to evaluate the effects of the compounds of the present disclosure on the expression of target proteins in cells.
(1) Cell Seeding and Protein Harvesting: The selected cells were processed according to the cell seeding procedure and protein harvesting procedure in Table II-2.
(2) To the collected supernatant, 5×SDS sample loading buffer was added, followed by denaturation at 95 °C for 5 minutes. The denatured samples were then separated by SDS-PAGE electrophoresis on a polyacrylamide gel. Proteins were transferred to a nitrocellulose membrane (0.45 μm NC membrane), blocked with blocking buffer at room temperature for 1 hour, and subjected to antibody incubation and development procedures according to the antibody manufacturer's instructions (Cell Signaling Technology).
Half-Maximal Degradation Concentration value (the drug concentration required for degrading proteins by 50%, abbreviated as DC50) reads method: comparing the grayscale values of Western blot bands from drug-treated samples with those from blank DMSO-treated controls, and identifying the drug concentration range at which the grayscale value is half that of the DMSO-treated control bands.
DC50 values can be calculated using ImageJ software to measure grayscale values of Western blot bands from drug-treated samples. The concentration-response curve is fitted to estimate the drug concentration corresponding to half the grayscale value.
Target protein remaining (%) refers to the percentage of target protein remaining in cells after treatment with protein degrader compounds.
Calculation method for target protein remaining (%): Use ImageJ software to measure grayscale values of Western blot bands from drug (protein degrader)-treated samples. The grayscale value of drug-treated bands is divided by that of internal control protein bands, and the resulting quotient is normalized to obtain the relative percentage of remaining target protein after protein degrader treatment.
Target protein degradation rate (%)=1−target protein remaining (%).

Degradation of substrate protein IRAK4 (substrate protein remaining %) | Compound
A (0%≤substrate protein remaining %≤80%) | COc1cc2nn([C@H]3CC[C@H](CN4CC5CCC4CN5c4ccc5c(c4)C(=O)N(N4CCC(=O)NC4=O)C5=O)CC3)cc2cc1NC(=O)c1cccc(C(F)(F)F)n1 (stereo partly drawn) [GT-08660, N-(2-((1r,4r)-4-((5-(2-(2,4-dioxotetrahydropyrimidin-1(2H)-yl)-1,3-dioxoisoindolin-5-yl)-2,5-diazabicyclo[2.2.2]octan-2-yl)methyl)cyclohexyl)-6-methoxy-2H-indazol-5-yl)-6-(trifluoromethyl) picolinamide]
A (0%≤substrate protein remaining %≤80%) | COc1cc2nn(C3CCN(CC4CCN(c5ccc6c(c5)C(=O)N(N5CCC(=O)NC5=O)C6=O)CC4)CC3)cc2cc1NC(=O)c1cccc(C(F)(F)F)c1 [GT-04877, N-(2-(1-((1-(2-(2,4-dioxotetrahydropyrimidin-1(2H)-yl)-1,3-dioxoisoindolin-5-yl)piperidin-4-yl)methyl)piperidin-4-yl)-6-methoxy-2H-indazol-5-yl)-3-(trifluoromethyl)benzamide]
A (0%≤substrate protein remaining %≤80%) | CC(C)Nc1cc(-n2ccc3cc(C#N)cnc32)ncc1C(=O)NC1CCN(CC2CCN(c3ccc4c(c3)C(=O)N(N3CCC(=O)NC3=O)C4=O)CC2)CC1 [GT-05813, 6-(5-cyano-1H-pyrrolo[2,3-b]pyridin-1-yl)-N-(1-((1-(2-(2,4-dioxotetrahydropyrimidin-1(2H)-yl)-1,3-dioxoisoindolin-5-yl)piperidin-4-yl)methyl)piperidin-4-yl)-4-(isopropylamino) nicotinamide]
A (0%≤substrate protein remaining %≤80%) | O=C1CCN(N2C(=O)c3ccc(N4CCC(CN5CCC(n6cc(NC(=O)c7cnn8ccc(N9C[C@H]%10C[C@@H]9CO%10)nc78)c(C(F)F)n6)CC5)CC4)cc3C2=O)C(=O)N1 [GT-05056, 5-((1R,4R)-2-oxa-5-azabicyclo[2.2.1]heptan-5-yl)-N-(3-(difluoromethyl)-1-(1-((1-(2-(2,4-dioxotetrahydropyrimidin-1(2H)-yl)-1,3-dioxoisoindolin-5-yl)piperidin-4-yl)methyl)piperidin-4-yl)-1H-pyrazol-4-yl)pyrazolo[1,5-a]pyrimidine-3-carboxamide]
A (0%≤substrate protein remaining %≤80%) | O=C1CCN(N2C(=O)c3ccc(N4CCC(CN5CCN(c6ccc7c(c6)nc(NC(=O)c6cccc(C(F)(F)F)c6)n7[C@H]6CC[C@@H](CO)CC6)CC5)CC4)cc3C2=O)C(=O)N1 [GT-05055, N-(5-(4-((1-(2-(2,4-dioxotetrahydropyrimidin-1(2H)-yl)-1,3-dioxoisoindolin-5-yl)piperidin-4-yl)methyl)piperazin-1-yl)-1-((1s,4s)-4-(hydroxymethyl)cyclohexyl)-1H-benzo[d]imidazol-2-yl)-3-(trifluoromethyl)benzamide]
A (0%≤substrate protein remaining %≤80%) | COc1cc2nn([C@H]3CC[C@H](CN4CCN(C5CCN(c6ccc7c(c6)C(=O)N(N6CCC(=O)NC6=O)C7=O)CC5(F)F)CC4)CC3)cc2cc1NC(=O)c1cccc(C(F)(F)F)c1 (stereo partly drawn) [GT-08672, N-(2-((1r,4r)-4-((4-(1-(2-(2,4-dioxotetrahydropyrimidin-1(2H)-yl)-1,3-dioxoisoindolin-5-yl)-3,3-difluoropiperidin-4-yl)piperazin-1-yl)methyl)cyclohexyl)-6-methoxy-2H-indazol-5-yl)-3-(trifluoromethyl)benzamide]
A (0%≤substrate protein remaining %≤80%) | O=C1CCN(N2C(=O)c3ccc(N4CCC(N5CCN(C[C@H]6CC[C@H](n7cc(NC(=O)c8cnn9ccc(N%10C[C@H]%11C[C@@H]%10CO%11)nc89)c(C(F)F)n7)CC6)CC5)C(F)(F)C4)cc3C2=O)C(=O)N1 (stereo partly drawn) [GT-05123]
A (0%≤substrate protein remaining %≤80%) | CC(C)(O)c1cc2nn(C3CCN(CC4CCN(c5cccc6c5C(=O)N(N5CCC(=O)NC5=O)C6=O)CC4)CC3)cc2cc1NC(=O)c1cccc(C(F)(F)F)n1 [GT-05221, N-(2-(1-((1-(2-(2,4-dioxotetrahydropyrimidin-1(2H)-yl)-1,3-dioxoisoindolin-4-yl)piperidin-4-yl)methyl)piperidin-4-yl)-6-(2-hydroxypropan-2-yl)-2H-indazol-5-yl)-6-(trifluoromethyl) picolinamide]
A (0%≤substrate protein remaining %≤80%) | COc1cc2nn([C@H]3CC[C@H](CN4C5CCC4CN(c4ccc6c(c4)C(=O)N(N4CCC(=O)NC4=O)C6=O)C5)CC3)cc2cc1NC(=O)c1cccc(C(F)(F)F)n1 [GT-08654, N-(2-((1r,4r)-4-((3-(2-(2,4-dioxotetrahydropyrimidin-1(2H)-yl)-1,3-dioxoisoindolin-5-yl)-3,8-diazabicyclo[3.2.1]octan-8-yl)methyl)cyclohexyl)-6-methoxy-2H-indazol-5-yl)-6-(trifluoromethyl) picolinamide]
A (0%≤substrate protein remaining %≤80%) | COc1cc2nn([C@H]3CC[C@H](CN4CCN(c5cc(F)c6c(c5)C(=O)N(N5CCC(=O)NC5=O)C6=O)CC4)CC3)cc2cc1NC(=O)c1cccc(C(F)(F)F)n1 [GT-08657, N-(2-((1r,4r)-4-((4-(2-(2,4-dioxotetrahydropyrimidin-1(2H)-yl)-7-fluoro-1,3-dioxoisoindolin-5-yl)piperazin-1-yl)methyl)cyclohexyl)-6-methoxy-2H-indazol-5-yl)-6-(trifluoromethyl) picolinamide]
A (0%≤substrate protein remaining %≤80%) | CC(C)Nc1cc(-n2ccc3cc(C#N)cnc32)ncc1C(=O)NC1CCN(Cc2ccc3c(c2)C(=O)N(N2CCC(=O)NC2=O)C3=O)CC1 [GT-05326, 6-(5-cyano-1H-pyrrolo[2,3-b]pyridin-1-yl)-N-(1-((2-(2,4-dioxotetrahydropyrimidin-1(2H)-yl)-1,3-dioxoisoindolin-5-yl)methyl)piperidin-4-yl)-4-((isopropyl)amino) nicotinamide]
A (0%≤substrate protein remaining %≤80%) | COc1cc2nn([C@H]3CC[C@H](CN4C[C@@H]5C[C@H]4CN5c4ccc5c(c4)C(=O)N(N4CCC(=O)NC4=O)C5=O)CC3)cc2cc1NC(=O)c1cccc(C(F)(F)F)c1 [GT-08662, N-(2-((1S,4r)-4-(((1S,4S)-5-(2-(2,4-dioxotetrahydropyrimidin-1(2H)-yl)-1,3-dioxoisoindolin-5-yl)-2,5-diazabicyclo[2.2.1]heptan-2-yl)methyl)cyclohexyl)-6-methoxy-2H-indazol-5-yl)-3-(trifluoromethyl)benzamide]
A (0%≤substrate protein remaining %≤80%) | COc1cc2nn([C@H]3CC[C@H](CN4CCN(C5CCN(c6ccc7c(c6)C(=O)N(N6CCC(=O)NC6=O)C7=O)CC5)CC4)CC3)cc2cc1NC(=O)c1cccc(C(F)(F)F)c1 [GT-08671, N-(2-((1r,4r)-4-((4-(1-(2-(2,4-dioxotetrahydropyrimidin-1(2H)-yl)-1,3-dioxoisoindolin-5-yl)piperidin-4-yl)piperazin-1-yl)methyl)cyclohexyl)-6-methoxy-2H-indazol-5-yl)-3-(trifluoromethyl)benzamide]
A (0%≤substrate protein remaining %≤80%) | COc1cc2nn(C3CCN(Cc4ccc5c(c4)C(=O)N(N4CCC(=O)NC4=O)C5=O)CC3)cc2cc1NC(=O)c1cccc(C(F)(F)F)c1 [GT-05078, N-(2-(1-((2-(2,4-dioxotetrahydropyrimidin-1(2H)-yl)-1,3-dioxoisoindolin-5-yl)methyl)piperidin-4-yl)-6-methoxy-2H-indazol-5-yl)-3-(trifluoromethyl)benzamide]
A (0%≤substrate protein remaining %≤80%) | COc1cc2nn([C@H]3CC[C@H](CN4CC5CCC4CN5c4ccc5c(c4)C(=O)N(N4CCC(=O)NC4=O)C5=O)CC3)cc2cc1NC(=O)c1cccc(C(F)(F)F)c1 (stereo partly drawn) [GT-08673, N-(2-((1r,4r)-4-((5-(2-(2,4-dioxotetrahydropyrimidin-1(2H)-yl)-1,3-dioxoisoindolin-5-yl)-2,5-diazabicyclo[2.2.2]octan-2-yl)methyl)cyclohexyl)-6-methoxy-2H-indazol-5-yl)-3-(trifluoromethyl)benzamide]
